# Entries after “also recorded” stand apart in the source; their conditions may differ.
# Assays:
# KYSE-70 = assay: MTT cytotoxicity assay, KYSE-70; type: cell-based, Human; conditions: KYSE-70, highest concentration of 50 μg/mL, 48 hours
# Description: (§1) In this invention, compound 1 was dissolved in dimethyl sulfoxide (DMSO) to make stock solutions and further diluted in culture medium for this experiment. Human esophagus carcinoma cancer cell lines (KYSE-70, KYSE-150, KYSE-450 and KYSE-520) were cultured in RPMI 1640 or DMEM medium, containing 10% fetal bovine serum and 1% antibiotics (Penicillin and strep). The cell lines were cultured at 37° C. in a humidified environment containing 5% CO2. A standard colorimetric MTT assay was used to determine the cell viability. Cells were seeded in a 96-well plate (3×10^3 cells/well) and allowed to attach to the plate overnight. After the recovery, cells were treated with various concentrations of compound 1 or the crude extract (1.56, 3.125, 6.25, 12.5, 25, 50 μg/mL) for 48 hours. Then, 20 μL of MTT (5 mg/mL stock in PBS) per well was added into the medium (200 μL) and incubated for 4 hours at 37° C. Finally, the culture medium was removed and 200 μL of DMSO were added. Absorbance of the solution was measured using a microplate reader spectrophotometer (Bio-Rad Laboratories, Inc., Hercules, Calif.) at a wavelength of 570 nm.
# KYSE-520 = assay: MTT cytotoxicity assay, KYSE-520; type: cell-based, Human; conditions: KYSE-520, highest concentration of 50 μg/mL, 48 hours
# Description: as §1
# KYSE-150 cells [1] = assay: Tumor xenograft mouse model; type: in vivo, Balb/c nude mice; conditions: 15 and 30 mg/kg/day intraperitoneal, 12 days, vs saline control
# Description: Six to eight-week-old female Balb/c nude weighing between 16-20 g were bred in 12 h day/night cycle environment with free access to food and water. 2×10^6 KYSE-150 cells per […] saline were injected subcutaneously into the flanks of the mice. When the tumor volume reached about 100 mm^3, the mice were randomly divided into three groups (n=5) as followed: (i) a control group: administered with saline; (ii) a low dosage group: administered with compound 1 at 15 mg/kg/day by intraperitoneal injection; (iii) a high dosage group, administered with compound 1 at 30 mg/kg/day by intraperitoneal injection. Tumor volumes were calculated with calipers every two days according to the formula: Volume=(width)^2×length/2. After 12 days observation, mice were killed to remove the tumor. Then the samples were fixed in 4% paraformaldehyde and embedded in paraffin. Five-micro-meter sections were stained with hematoxylin/eosin according to a standard procedure. The protocol was approved by the committee for Care of Laboratory Animals in the School of Chinese Medicine at the Hong Kong Baptist University.
# KYSE-150 = assay: MTT cytotoxicity assay, KYSE-150; type: cell-based, Human; conditions: KYSE-150, highest concentration of 50 μg/mL, 48 hours
# Description: as §1
# KYSE-150 cells [2] = assay: Wound healing assay; type: cell-based, human; conditions: KYSE-150, 50 μg/mL, after 72 hours, vs control
# Description: Cells were seeded in 12 wells plate at 30% confluence by scoring with a sterile plastic tip (1 mL), then washed several times with medium to remove cell debris and then incubated in the conditioned medium in the absence or presence of compound 1 at 50 μg/mL for various periods of time up to 72 hours. Cell migration into the wound surface was monitored by Olympus IX71 microscopy and digitally photographed.
# To further examine the inhibitory effect of compound 1 on the migratory activity of cancer cell, a confluent monolayer of KYSE-150 cells was scratched to form a wound and incubated in the absence or presence of compound 1 (50 μg/mL) as compared to that of controls.
# KYSE-450 = assay: MTT cytotoxicity assay, KYSE-450; type: cell-based, Human; conditions: KYSE-450, highest concentration of 50 μg/mL, 48 hours
# Description: as §1
smiles,measurement,setting,value
COc1cc(-c2oc3cc(O)cc(O)c3c(=O)c2OC2OC(COC3OC(C)C(O)C(O)C3O)C(O)C(O)C2O)ccc1O (stereo not drawn) [compound 1],Cytotoxicity (cell viability),KYSE-70,no cytotoxicity was observed
same,Cytotoxicity (cell viability),KYSE-520,no cytotoxicity was observed
same,Body weight,KYSE-150 cells [1],significantly reduced
same,H&E staining of tumor tissue,KYSE-150 cells [1],massive necrotizing tissue
same,Tumor growth (tumor volume),KYSE-150 cells [1],significantly reduced
same,Tumor weight,KYSE-150 cells [1],significantly reduced tumor weight
same,Cytotoxicity (cell viability),KYSE-150,cells viability was not altered; also recorded: no cytotoxicity was observed
same,Cell migration,KYSE-150 cells [2],significantly inhibited the cell migration
same,Cytotoxicity (cell viability),KYSE-450,no cytotoxicity was observed

# — patent US9655913B2, “Anti-esophageal cancer compound and method of use thereof” (Hong Kong Baptist University, priority 2015, dated 2017)
